Where two headings read alike, the source gives them in different places.
Test: Pharmacokinetic evaluation in humans
Type: in vivo
Conditions: human; for CL renal: plasma and urine; for AUC(0-inf) / clearance / Cmax / Vd / half-life / AUC(0-t): plasma
Method: Plasma and urine RLip-EA-OH concentrations were measured at BASi, Inc. (West Lafayette, Ind.) using a LC/MS/MS method with positive turbo ion spray, in the multiple reaction-monitoring mode. The quantifiable range for human plasma was 1.00 to 500 ng/mL and QC samples were included at 3.00, 75.0 and 375 ng/mL.
The PK population included subjects who received RLip-EA-OH and had ≧1 post-dose PK measurement. […] Plasma samples from 24 subjects (6 RLip-EA-OH subjects per cohort) were analyzed (Tables 16 and 17).

## C[C@H](NC(=O)[C@H](CCC(=O)O)NC(=O)CCCC[C@@H]1CCSS1)C(=O)O [RLip-EA-OH, N-(R)-lipoyl-L-glutamyl-L- alanine]
20 mg, noncompartmental, read-out: Renal clearance, Mean (SD) (converted)
  CL renal: 168 mL/min
20 mg, noncompartmental, read-out: Renal clearance, Median (converted)
  CL renal: 186 mL/min
20 mg, noncompartmental, read-out: Renal clearance, Minimum, maximum
  CL renal: 80.8 to 255 mL/min
60 mg, noncompartmental, read-out: Renal clearance, Mean (SD) (converted)
  CL renal: 181 mL/min
60 mg, noncompartmental, read-out: Renal clearance, Median (converted)
  CL renal: 188 mL/min
60 mg, noncompartmental, read-out: Renal clearance, Minimum, maximum
  CL renal: 135 to 220 mL/min
150 mg, noncompartmental, read-out: Renal clearance, Mean (SD) (converted)
  CL renal: 124 mL/min
150 mg, noncompartmental, read-out: Renal clearance, Median (converted)
  CL renal: 98 mL/min
150 mg, noncompartmental, read-out: Renal clearance, Minimum, maximum
  CL renal: 58.5 to 243 mL/min
300 mg, noncompartmental, read-out: Renal clearance, Mean (SD) (converted)
  CL renal: 141 mL/min
300 mg, noncompartmental, read-out: Renal clearance, Median (converted)
  CL renal: 140 mL/min
300 mg, noncompartmental, read-out: Renal clearance, Minimum, maximum
  CL renal: 85.2 to 200 mL/min
20 mg, compartmental, read-out: AUCinf, Mean (SD)
  AUC(0-inf): 621 ng·h/mL
20 mg, compartmental, read-out: AUCinf, Median
  AUC(0-inf): 614 ng·h/mL
20 mg, compartmental, read-out: AUCinf, Minimum, maximum
  AUC(0-inf): 474 to 787 ng·h/mL
20 mg, compartmental, read-out: CL, Mean (SD) (converted)
  clearance: 557 mL/min
20 mg, compartmental, read-out: CL, Median (converted)
  clearance: 545 mL/min
20 mg, compartmental, read-out: CL, Minimum, maximum
  clearance: 423 to 703 mL/min
20 mg, compartmental, read-out: Estimated Cmax, Mean (SD)
  Cmax: 2360 ng/mL
20 mg, compartmental, read-out: Estimated Cmax, Median
  Cmax: 2480 ng/mL
20 mg, compartmental, read-out: Estimated Cmax, Minimum, maximum
  Cmax: 1360 to 3340 ng/mL
20 mg, compartmental, read-out: Vss, Mean (SD)
  Vd: 16 L
20 mg, compartmental, read-out: Vss, Median
  Vd: 16 L
20 mg, compartmental, read-out: Vss, Minimum, maximum
  Vd: 11 to 20 L
20 mg, compartmental, read-out: t1/2, Mean (SD) (converted)
  half-life: 1 h
20 mg, compartmental, read-out: t1/2, Median (converted)
  half-life: 0.8 h
20 mg, compartmental, read-out: t1/2, Minimum, maximum
  half-life: 0.6 to 1.6 h
20 mg, noncompartmental, read-out: AUC0-t, Mean (SD)
  AUC(0-t): 581 ng·h/mL
20 mg, noncompartmental, read-out: AUC0-t, Median
  AUC(0-t): 556 ng·h/mL
20 mg, noncompartmental, read-out: AUC0-t, Minimum, maximum
  AUC(0-t): 466 to 717 ng·h/mL
20 mg, noncompartmental, read-out: AUCinf, Mean (SD)
  AUC(0-inf): 583 ng·h/mL
20 mg, noncompartmental, read-out: AUCinf, Median
  AUC(0-inf): 558 ng·h/mL
20 mg, noncompartmental, read-out: AUCinf, Minimum, maximum
  AUC(0-inf): 467 to 718 ng·h/mL
20 mg, noncompartmental, read-out: CL, Mean (SD) (converted)
  clearance: 588 mL/min
20 mg, noncompartmental, read-out: CL, Median (converted)
  clearance: 598 mL/min
20 mg, noncompartmental, read-out: CL, Minimum, maximum
  clearance: 465 to 713 mL/min
20 mg, noncompartmental, read-out: Cmax, Mean (SD)
  Cmax: 1830 ng/mL
20 mg, noncompartmental, read-out: Cmax, Median
  Cmax: 1840 ng/mL
20 mg, noncompartmental, read-out: Cmax, Minimum, maximum
  Cmax: 1220 to 2420 ng/mL
20 mg, noncompartmental, read-out: Vss, Mean (SD)
  Vd: 18.5 L
20 mg, noncompartmental, read-out: Vss, Median
  Vd: 18.7 L
20 mg, noncompartmental, read-out: Vss, Minimum, maximum
  Vd: 14.4 to 22.4 L
20 mg, noncompartmental, read-out: t1/2, Mean (SD) (converted)
  half-life: 0.86 h
20 mg, noncompartmental, read-out: t1/2, Median (converted)
  half-life: 0.76 h
20 mg, noncompartmental, read-out: t1/2, Minimum, maximum
  half-life: 0.61 to 1.41 h
20 mg, read-out: CL (converted)
  clearance: 588 mL/min
60 mg, compartmental, read-out: AUCinf, Mean (SD)
  AUC(0-inf): 2260 ng·h/mL
60 mg, compartmental, read-out: AUCinf, Median
  AUC(0-inf): 1910 ng·h/mL
60 mg, compartmental, read-out: AUCinf, Minimum, maximum
  AUC(0-inf): 1770 to 3160 ng·h/mL
60 mg, compartmental, read-out: CL, Mean (SD) (converted)
  clearance: 467 mL/min
60 mg, compartmental, read-out: CL, Median (converted)
  clearance: 523 mL/min
60 mg, compartmental, read-out: CL, Minimum, maximum
  clearance: 317 to 565 mL/min
60 mg, compartmental, read-out: Estimated Cmax, Mean (SD)
  Cmax: 6870 ng/mL
60 mg, compartmental, read-out: Estimated Cmax, Median
  Cmax: 6290 ng/mL
60 mg, compartmental, read-out: Estimated Cmax, Minimum, maximum
  Cmax: 5520 to 9050 ng/mL
60 mg, compartmental, read-out: Vss, Mean (SD)
  Vd: 14 L
60 mg, compartmental, read-out: Vss, Median
  Vd: 15 L
60 mg, compartmental, read-out: Vss, Minimum, maximum
  Vd: 10 to 17 L
60 mg, compartmental, read-out: t1/2, Mean (SD) (converted)
  half-life: 1.5 h
60 mg, compartmental, read-out: t1/2, Median (converted)
  half-life: 1.4 h
60 mg, compartmental, read-out: t1/2, Minimum, maximum
  half-life: 1.1 to 2.6 h
60 mg, noncompartmental, read-out: AUC0-t, Mean (SD)
  AUC(0-t): 2250 ng·h/mL
60 mg, noncompartmental, read-out: AUC0-t, Median
  AUC(0-t): 1980 ng·h/mL
60 mg, noncompartmental, read-out: AUC0-t, Minimum, maximum
  AUC(0-t): 1720 to 3110 ng·h/mL
60 mg, noncompartmental, read-out: AUCinf, Mean (SD)
  AUC(0-inf): 2260 ng·h/mL
60 mg, noncompartmental, read-out: AUCinf, Median
  AUC(0-inf): 1980 ng·h/mL
60 mg, noncompartmental, read-out: AUCinf, Minimum, maximum
  AUC(0-inf): 1720 to 3110 ng·h/mL
60 mg, noncompartmental, read-out: CL, Mean (SD) (converted)
  clearance: 467 mL/min
60 mg, noncompartmental, read-out: CL, Median (converted)
  clearance: 505 mL/min
60 mg, noncompartmental, read-out: CL, Minimum, maximum
  clearance: 322 to 582 mL/min
60 mg, noncompartmental, read-out: Cmax, Mean (SD)
  Cmax: 6560 ng/mL
60 mg, noncompartmental, read-out: Cmax, Median
  Cmax: 6840 ng/mL
60 mg, noncompartmental, read-out: Cmax, Minimum, maximum
  Cmax: 5190 to 7990 ng/mL
60 mg, noncompartmental, read-out: Vss, Mean (SD)
  Vd: 14.9 L
60 mg, noncompartmental, read-out: Vss, Median
  Vd: 14.8 L
60 mg, noncompartmental, read-out: Vss, Minimum, maximum
  Vd: 11.3 to 18.6 L
60 mg, noncompartmental, read-out: t1/2, Mean (SD) (converted)
  half-life: 1.21 h
60 mg, noncompartmental, read-out: t1/2, Median (converted)
  half-life: 1.26 h
60 mg, noncompartmental, read-out: t1/2, Minimum, maximum
  half-life: 0.84 to 1.5 h
150 mg, compartmental, read-out: AUCinf, Mean (SD)
  AUC(0-inf): 7030 ng·h/mL
150 mg, compartmental, read-out: AUCinf, Median
  AUC(0-inf): 6920 ng·h/mL
150 mg, compartmental, read-out: AUCinf, Minimum, maximum
  AUC(0-inf): 4890 to 9610 ng·h/mL
150 mg, compartmental, read-out: CL, Mean (SD) (converted)
  clearance: 370 mL/min
